Laboratory results as given in the supplement of paper PMC10307832.

Legend:
Assay in all cases: relative viability (nuclei count vs DMSO), 5 days (fraction); higher = more cells survive
SW 1573 = tested on: SW 1573
In short: (§1)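 Lung cancer cell lines, seeded in 1536-well plates, were treated the following day by pin tool with a single drug or with five library-drug doses (not always all listed) in √10 steps on top of a fixed anchor-drug dose. Cells were fixed and nuclei stained in one step after 5 days, and nuclei were counted. Relative viability is the nuclei count for treated wells divided by that for vehicle wells, reported as medians of duplicate plates.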

NCI-H1395 = tested on: NCI-H1395
In short: as §1

NCI-H2228 = tested on: NCI-H2228
In short: as §1

HCC-827 = tested on: HCC-827
In short: as §1

CAL-12T = tested on: CAL-12T
In short: as §1

NCI-H1437 = tested on: NCI-H1437
In short: as §1

NCI-H23 = tested on: NCI-H23
In short: as §1

NCI-H522 = tested on: NCI-H522
In short: as §1

EMC-BAC-2 = tested on: EMC-BAC-2
In short: as §1

NCI-H1755 = tested on: NCI-H1755
In short: as §1

NCI-H1792 = tested on: NCI-H1792
In short: as §1

HOP-62 = tested on: HOP-62
In short: as §1

NCI-H727 = tested on: NCI-H727
In short: as §1

HCC-366 = tested on: HCC-366
In short: as §1

SK-LU-1 = tested on: SK-LU-1
In short: as §1

NCI-H460 = tested on: NCI-H460
In short: as §1

COR-L 105 = tested on: COR-L 105
In short: as §1

NCI-H2009 = tested on: NCI-H2009
In short: as §1

A-427 = tested on: A-427
In short: as §1

NCI-H1915 = tested on: NCI-H1915
In short: as §1

LCLC-103H = tested on: LCLC-103H
In short: as §1

HARA = tested on: HARA
In short: as §1

## O=c1cc(-c2cccc3c2Sc2ccccc2S3)oc(N2CCOCC2)c1 + N=C(N)NC(=N)NCCc1ccccc1 [Phenformin] (partner 250 µM)
SW 1573; first compound 0.08 µM
  relative viability: 0.38
SW 1573; first compound 0.253 µM
  relative viability: 0.369
SW 1573; first compound 0.8 µM
  relative viability: 0.339
SW 1573; first compound 2.53 µM
  relative viability: 0.347
SW 1573; first compound 8 µM
  relative viability: 0.364
NCI-H1395; first compound 0.08 µM
  relative viability: 0.462
NCI-H1395; first compound 0.253 µM
  relative viability: 0.393
NCI-H1395; first compound 0.8 µM
  relative viability: 0.472
NCI-H1395; first compound 2.53 µM
  relative viability: 0.389
NCI-H1395; first compound 8 µM
  relative viability: 0.433
NCI-H2228; first compound 0.08 µM
  relative viability: 0.346
NCI-H2228; first compound 0.253 µM
  relative viability: 0.25
NCI-H2228; first compound 0.8 µM
  relative viability: 0.426
NCI-H2228; first compound 2.53 µM
  relative viability: 0.267
NCI-H2228; first compound 8 µM
  relative viability: 0.277
HCC-827; first compound 0.08 µM
  relative viability: 0.396
HCC-827; first compound 0.253 µM
  relative viability: 0.452
HCC-827; first compound 0.8 µM
  relative viability: 0.402
HCC-827; first compound 2.53 µM
  relative viability: 0.306
HCC-827; first compound 8 µM
  relative viability: 0.408
CAL-12T; first compound 0.08 µM
  relative viability: 0.534
CAL-12T; first compound 0.253 µM
  relative viability: 0.603
CAL-12T; first compound 0.8 µM
  relative viability: 0.597
CAL-12T; first compound 2.53 µM
  relative viability: 0.514
CAL-12T; first compound 8 µM
  relative viability: 0.487
NCI-H1437; first compound 0.08 µM
  relative viability: 0.271
NCI-H1437; first compound 0.253 µM
  relative viability: 0.683
NCI-H1437; first compound 0.8 µM
  relative viability: 0.238
NCI-H1437; first compound 2.53 µM
  relative viability: 0.277
NCI-H1437; first compound 8 µM
  relative viability: 0.343
NCI-H23; first compound 0.08 µM
  relative viability: 0.811
NCI-H23; first compound 0.253 µM
  relative viability: 0.96
NCI-H23; first compound 0.8 µM
  relative viability: 0.901
NCI-H23; first compound 2.53 µM
  relative viability: 0.714
NCI-H23; first compound 8 µM
  relative viability: 0.959
NCI-H522; first compound 0.08 µM
  relative viability: 0.56
NCI-H522; first compound 0.253 µM
  relative viability: 0.689
NCI-H522; first compound 0.8 µM
  relative viability: 0.622
NCI-H522; first compound 2.53 µM
  relative viability: 0.556
NCI-H522; first compound 8 µM
  relative viability: 0.67
EMC-BAC-2; first compound 0.08 µM
  relative viability: 0.502
EMC-BAC-2; first compound 0.253 µM
  relative viability: 0.54
EMC-BAC-2; first compound 0.8 µM
  relative viability: 0.563
EMC-BAC-2; first compound 2.53 µM
  relative viability: 0.489
EMC-BAC-2; first compound 8 µM
  relative viability: 0.519
NCI-H1755; first compound 0.08 µM
  relative viability: 0.625
NCI-H1755; first compound 0.253 µM
  relative viability: 0.694
NCI-H1755; first compound 0.8 µM
  relative viability: 0.597
NCI-H1755; first compound 2.53 µM
  relative viability: 0.545
NCI-H1755; first compound 8 µM
  relative viability: 0.653
NCI-H1792; first compound 0.08 µM
  relative viability: 0.185
NCI-H1792; first compound 0.253 µM
  relative viability: 0.349
NCI-H1792; first compound 0.8 µM
  relative viability: 0.258
NCI-H1792; first compound 2.53 µM
  relative viability: 0.168
NCI-H1792; first compound 8 µM
  relative viability: 0.345
HOP-62; first compound 0.08 µM
  relative viability: 0.714
HOP-62; first compound 0.253 µM
  relative viability: 0.899
HOP-62; first compound 0.8 µM
  relative viability: 0.688
HOP-62; first compound 2.53 µM
  relative viability: 0.663
HOP-62; first compound 8 µM
  relative viability: 0.799
NCI-H727; first compound 0.08 µM
  relative viability: 0.503
NCI-H727; first compound 0.253 µM
  relative viability: 0.591
NCI-H727; first compound 0.8 µM
  relative viability: 0.411
NCI-H727; first compound 2.53 µM
  relative viability: 0.571
NCI-H727; first compound 8 µM
  relative viability: 0.525
HCC-366; first compound 0.08 µM
  relative viability: 0.588
HCC-366; first compound 0.253 µM
  relative viability: 0.727
HCC-366; first compound 0.8 µM
  relative viability: 0.71
HCC-366; first compound 2.53 µM
  relative viability: 0.549
HCC-366; first compound 8 µM
  relative viability: 0.632
SK-LU-1; first compound 0.08 µM
  relative viability: 0.545
SK-LU-1; first compound 0.253 µM
  relative viability: 0.551
SK-LU-1; first compound 0.8 µM
  relative viability: 0.737
SK-LU-1; first compound 2.53 µM
  relative viability: 0.459
SK-LU-1; first compound 8 µM
  relative viability: 0.527
NCI-H460; first compound 0.08 µM
  relative viability: 0.535
NCI-H460; first compound 0.253 µM
  relative viability: 0.549
NCI-H460; first compound 0.8 µM
  relative viability: 0.571
NCI-H460; first compound 2.53 µM
  relative viability: 0.525
NCI-H460; first compound 8 µM
  relative viability: 0.531
COR-L 105; first compound 0.08 µM
  relative viability: 0.454
COR-L 105; first compound 0.253 µM
  relative viability: 0.471
COR-L 105; first compound 0.8 µM
  relative viability: 0.466
COR-L 105; first compound 2.53 µM
  relative viability: 0.507
COR-L 105; first compound 8 µM
  relative viability: 0.47
NCI-H2009; first compound 0.08 µM
  relative viability: 0.481
NCI-H2009; first compound 0.253 µM
  relative viability: 0.545
NCI-H2009; first compound 0.8 µM
  relative viability: 0.522
NCI-H2009; first compound 2.53 µM
  relative viability: 0.445
NCI-H2009; first compound 8 µM
  relative viability: 0.446
A-427; first compound 0.08 µM
  relative viability: 0.282
A-427; first compound 0.253 µM
  relative viability: 0.313
A-427; first compound 0.8 µM
  relative viability: 0.376
A-427; first compound 8 µM
  relative viability: 0.35
NCI-H1915; first compound 0.08 µM
  relative viability: 0.37
NCI-H1915; first compound 0.253 µM
  relative viability: 0.4
NCI-H1915; first compound 0.8 µM
  relative viability: 0.436
NCI-H1915; first compound 2.53 µM
  relative viability: 0.355
NCI-H1915; first compound 8 µM
  relative viability: 0.406
LCLC-103H; first compound 0.08 µM
  relative viability: 0.31
LCLC-103H; first compound 0.253 µM
  relative viability: 0.374
LCLC-103H; first compound 0.8 µM
  relative viability: 0.361
LCLC-103H; first compound 2.53 µM
  relative viability: 0.336
LCLC-103H; first compound 8 µM
  relative viability: 0.296
HARA; first compound 0.08 µM
  relative viability: 0.452
HARA; first compound 0.253 µM
  relative viability: 0.592
HARA; first compound 0.8 µM
  relative viability: 0.435
HARA; first compound 2.53 µM
  relative viability: 0.348
HARA; first compound 8 µM
  relative viability: 0.702
